Read-outs that look alike come from different tables or passages of the source.
Assays:
[1] = Pharmacokinetic oral gavage experiment in rats (serum spilanthol, one compartmental model); format: in vivo, Wistar rats; conditions: for half-life: 1.5 ml of 0.73 mg spilanthol/g dose solution, read-out: elimination half-life (converted)
Description: The Wistar rats were bred in Bharat Serum and Vaccines pvt. Ltd, Thane, India (registration number 103/99/CPCSEA) and kept for the experiments at C. U. Shah College of Pharmacy, SNDT Women’s University, Santacruz, Mumbai, India (registration number 39/99/CPCSEA). The half of the rats used in the experiment were female rats and the other half male rats. Rats of 7-8 weeks old, weighing 220 g, and fasted overnight were used for the experiment.
The pharmacokinetic oral gavage experiment was carried out at C. U. Shah College of Pharmacy, SNDT Women’s University, Santacruz, Mumbai, India. A spilanthol dose solution was prepared with the Spilanthes acmella (L.) L. extract (A.Vogel). 1.5 ml of a spilanthol dose solution of 0.73 mg spilanthol/g dose solution in 10:20:30:40 (w/w/w/w) ethanol:PG:vitamin E-TPGS:PEG400 was administered to the rats using a gavage needle made up of stainless steel (length 3 inches and 2.5 mm internal diameter). A blank dose solution was used as well, containing ethanol, PG, vitamin E-TPGS and PEG without spilanthol. For each dose solution, six rats were used of which three were females and three males. Blood was collected (1.5 ml) from the retro orbital vein at specified time points i.e. 1, 2, 3, 4, 6, and 8 h after oral administration of the dose solution. The collected blood samples were centrifuged using a Remi R-24 centrifuge. At the end of the study, the animals were sacrificed by CO2 inhalation. All samples were immediately frozen at -80 °C until bio-analysis. The elimination rate constant was calculated using a one compartmental model using GraphPad software (La Jolla, USA), using the following equation: Ct=C0×e^−ke×t , in which t is time (h), C0 the concentration of spilanthol at time t = 0 (ng/ml), C(t) the concentration of spilanthol at time t and ke the elimination rate constant (h^−1). The elimination half-life (h) is computed as ln(2)/ke.
60 μl of the serum samples, 60 μl of 4 % (V/V) aqueous H3PO4 solution and 30 μl of the IS solution were transferred into a 0.5 ml (LoBind Eppendorf) tube and vortexed. Interfering compounds were removed by solid phase extraction using a positive pressure-96 processor (Waters). […] After the loading step, the HLB Oasis® μelution plate was washed using 200 μl of 5 % MeOH in H2O followed by 200 μl of 20 % MeOH in H2O. Spilanthol was eluted using two times 25 μl ACN. To the eluate, 25 μl of a 80:20 (V/V) H2O:MeOH solution was added and analysed with a UPLC-MS^2 method, as further described.

[2] = Capillary depletion (distribution brain parenchyma versus capillaries); format: in vivo, ICR-CD-1 mice; conditions: female, ICR-CD-1, mouse, iv, 80 μg per mouse, mice, 10 min after i.v. injection
Description: To investigate the distribution of spilanthol in the parenchyma and capillaries of the brain, a capillary depletion experiment was performed. By means of this experiment, it is possible to distinguish the transport of spilanthol into the brain (represented by the parenchyma) and part of spilanthol which is trapped by the endothelial cells of the brain (represented by the capillaries). The method of Triguero et al., as modified by Gutierrez et al., was used. Briefly, after anesthetizing the mice intraperitoneally with 40 % (w/V) urethane solution (3 g/kg), 20 μl of the 4 mg/ml spilanthol dose solution was injected into the jugular vein. Blood was collected from the abdominal aorta ten min after injection and serum was obtained by centrifuging the blood at 10 000 g during 15 min at 21 °C. Immediately after blood collection, the skin of the mice’s chest is removed to clamp the aorta and the jugular veins are severed. Immediately after clamping the aorta, the brain is perfused manually with 20 ml of Lactated Ringer’s solution. […]
The distribution was calculated as follows: Fraction%=Mtissue/Mcapillaries+Mparenchyma×100 where Mtissue represents the amount of spilanthol in the capillaries, respectively parenchyma; Mcapillaries the amount of spilanthol in the capillaries and Mparenchyma the amount of spilanthol in the parenchyma.

[3] = Brain-to-blood transport after intracerebroventricular injection; format: in vivo, ICR-CD-1 mice; conditions: female, ICR-CD-1, mouse, icv or intrathecal, 4 μg per mouse; mice, ICV injection, ln(2)/kout; read-out: efflux brain half-life t1/2,brain
Description: (§1) To evaluate the efflux of spilanthol out of the brain, an in vivo method previously described was used. Briefly, after anesthetizing the ICR-CD-1 mice using a 40 % (w/V) urethane solution (3 g/kg), the skin of the skull was removed. Thereafter, a hole was made into the lateral ventricle using a 22 G needle marked with tape at 2 mm at the following coordinates: 1 mm lateral and 0.34 mm posterior to the bregma. 1 μl of the 4 mg/ml spilanthol dose solution as used for the blood-to-brain influx experiment was injected intracerebroventriculary (ICV) using a syringe pump (KDS100, KR analytical, Cheshire, UK) at a speed of 360 μl/h for 10 s. […] Prior to decapitation, blood was collected from the abdominal aorta. Serum was obtained by centrifuging the blood at 10 000 g during 15 min at 21 °C and brains were collected. The efflux brain half-life (t1/2,brain) (min) was calculated from the linear regression of the natural logarithm of the spilanthol concentration in brain (ng/g) versus time as follows: t1/2,brain = ln(2)/kout, where kout (min^−1) is defined as the efflux rate constant calculated as the negative value of the slope of the linear regression, applying first order kinetics.

[4] = tested on: blood-brain barrier; assay: as above; format: in vivo, ICR-CD-1 mice; conditions: mice, ICV injection of 1 μl of 4 mg/ml dose solution
Description: as §1

[5] = tested on: blood-brain barrier; assay: Blood-to-brain transport, in vivo multiple time regression (MTR) analysis; conditions: mice
Description: Female, Institute for Cancer Research, Caesarean Derived-1 (ICR-CD-1) mice (Harlan Laboratories, Venray, Netherlands) of age 7–10 weeks and weighing 29–32 g, were used during the BBB transport experiments.
An in vivo multiple time regression (MTR) analysis was performed to investigate if spilanthol was able to cross the BBB. A dose solution of spilanthol was prepared using the Spilanthes acmella (L.) L. extract (Robertet) with a final concentration of 4 mg/ml spilanthol dissolved in 7.0 % ethanol, 2.5 % dimethylacetamide, 0.6 % tween 80 (all w/w) diluted in lactated Ringer’s solution containing 1 % BSA. The ICR-CD-1 mice were anesthetized by intraperitoneal injection with a 40 % (w/V) urethane solution (3 g/kg) and the jugular internalis vein and carotid artery were isolated, 20 μl of the spilanthol dose solution was injected into the jugular vein. Blood was obtained from the carotid artery at regular time points after injection (1, 3, 5, 10, 12.5 and 15 min, with start and end in duplicate), and the mice were immediately thereafter decapitated. After sacrificing the mice, the brains were collected. The collected blood from the carotid artery was centrifuged at 10 000 g for 15 min at 21 °C, resulting in serum. […]

C/C=C/C=C\CC/C=C/C(=O)NCC(C)C [spilanthol, deca-2E,6Z,8E-trienoic acid isobutylamide]
k el ([1]; both sexes, Wistar, rat, serum, po, 0.73 mg, oral gavage of 1.5 ml of 0.73 mg spilanthol/g dose solution (A. Vogel extract), one compartmental model, read-out: elimination rate constant ke (converted)): 0.000167 s⁻¹
half-life ([1]; both sexes, Wistar, rat, serum, po, oral gavage (discussion, in brackets)): 1.05 h
half-life ([1]; both sexes, Wistar, rat, serum, po, oral gavage, ln(2)/ke): 1.13 h
elimination rate constant ke ([1]; rat serum, oral gavage of 1.5 ml of 0.73 mg spilanthol/g dose solution (A. Vogel extract), one compartmental model): 0.61 h⁻¹
Kp at 10 min ([2]; brain capillaries/serum, read-out: spilanthol in brain capillaries (brain/serum ratio)): 0.0024
Kp at 10 min ([2]; brain parenchyma/serum, read-out: spilanthol in brain parenchyma (brain/serum ratio)): 0.138
half-life [3]: 6.4 min
efflux transfer constant kout [4]: 0.11 min⁻¹
toxicity during the experiment ([5]; i.v. spilanthol dose solution with ethanol, dimethylacetamide, tween 80): no toxicity was observed
exposure time at which brain/serum ratio curve reached a plateau-phase ([5]; i.v., MTR): about 10 min
